# In patent US20240199598A1 (MITOIMMUNE THERAPEUTICS INC., priority 2021, published 2024):
# “Also recorded” adds a separate entry of the source. Like-named read-outs stand apart in the source and are kept apart here.
# Tests used:
# [1] = Solubility test of sulfate (Crystalline form III) in various solvents; format: physicochemical; settings: thermodynamic from solid
# Method: First, solvent screening was performed for a study on various crystalline forms.
# [2] = Physicochemical stability test of free form and 5 salts (60° C., 40° C./75% humidity, light); settings: for Final purity: HPLC
# Method: In the case of a light stability test, the vial was stored in a light stability test chamber while being not closed with a lid, and exposed to a total illuminance of 1.2 million lux-hr. A vial light-shielded with aluminum foil was used as an experimental control (Dark control). For stability assessment, state assessment by visual observation, purity assessment using HPLC, and crystalline form assessment using XRPD were conducted, and results thereof are shown in Table 7. […] In FIGS. 19 to 30, “Light” represents light irradiation condition results.
# [3] = Oral administration pharmacokinetic test using mice; settings: mice, oral
# [4] = Simulated gastrointestinal fluid solubility test (SGF, FaSSIF, FeSSIF); format: physicochemical; settings: fed state simulated intestinal fluid (FeSSIF), 37 °C, pH 4.98, fessif, thermodynamic from solid
# Method: As simulated gastrointestinal fluid media (Biorelevant dissolution media) used for environment assessment in the simulated gastrointestinal tract, simulated gastric fluid (SGF), fasted state simulated intestinal fluid (FaSSIF), and fed state simulated intestinal fluid (FeSSIF) were used, and a detailed description of the test is as follows.
# All vials were placed on a hot plate stirrer and maintained while stirring at 37° C. and 700 rpm. […] After mixing at 37° C. for 24 hours, 300 μL of the suspension was separated from each vial and analyzed.
# The analysis sample was centrifuged at 14000 rpm for 5 minutes, and then the supernatant was diluted 10-fold with ACN:H2O (7/3, v/v) and analyzed by ultra-performance liquid chromatography (UPLC).
structure (smiles),measurement,setting,value
O=S1(=O)CCN(Cc2cc(NC3CCOCC3)c3[nH]c(-c4ccccc4)cc3c2)CC1 [Sulfate],solubility,"[1]; aqueous with cosolvent or surfactant or cyclodextrin, Acetic acid-H2O (1:1), 25° C., read-out: Solubility",196000 to 295000 µg/mL
same,solubility,"[1]; aqueous with cosolvent or surfactant or cyclodextrin, Acetic acid-H2O (1:1), 50° C., read-out: Solubility",300000 to 599000 µg/mL
same,solubility,"[1]; aqueous with cosolvent or surfactant or cyclodextrin, Acetone-H2O (1:2), 25° C., read-out: Solubility",9000 to 19000 µg/mL
same,solubility,"[1]; aqueous with cosolvent or surfactant or cyclodextrin, Acetone-H2O (1:2), 50° C., read-out: Solubility",37000 to 75000 µg/mL
same,solubility,"[1]; aqueous with cosolvent or surfactant or cyclodextrin, MeOH/H2O = 1:1(v/v), 25° C., read-out: Solubility",2000 to 3000 µg/mL
same,solubility,"[1]; aqueous with cosolvent or surfactant or cyclodextrin, MeOH/H2O = 1:1(v/v), 50° C., read-out: Solubility",9000 to 19000 µg/mL
same,solubility,"[1]; aqueous with cosolvent or surfactant or cyclodextrin, in MeOH/H2O (1:1 (v:v)) and acetone/water (1:1 (v/v)), read-out: Solubility (good)",5000 to 40000 µg/mL
same,solubility,"[1]; organic solvent or mixture, 1-Butanol, 25° C., read-out: Solubility",< 2000 µg/mL
same,solubility,"[1]; organic solvent or mixture, 1-Butanol, 50° C., read-out: Solubility",< 2000 µg/mL
same,solubility,"[1]; organic solvent or mixture, 2-MeTHF, 25° C., read-out: Solubility",< 2000 µg/mL
same,solubility,"[1]; organic solvent or mixture, 2-MeTHF, 50° C., read-out: Solubility",< 2000 µg/mL
same,solubility,"[1]; organic solvent or mixture, ACN, 25° C., read-out: Solubility",< 2000 µg/mL
same,solubility,"[1]; organic solvent or mixture, ACN, 50° C., read-out: Solubility",< 2000 µg/mL
same,solubility,"[1]; organic solvent or mixture, Acetone, 25° C., read-out: Solubility",< 2000 µg/mL
same,solubility,"[1]; organic solvent or mixture, Acetone, 50° C., read-out: Solubility",< 2000 µg/mL
same,solubility,"[1]; organic solvent or mixture, CHCl3, 25° C., read-out: Solubility",< 2000 µg/mL
same,solubility,"[1]; organic solvent or mixture, CHCl3, 50° C., read-out: Solubility",< 2000 µg/mL
same,solubility,"[1]; organic solvent or mixture, DMF, 25° C., read-out: Solubility",202000 to 302000 µg/mL
same,solubility,"[1]; organic solvent or mixture, DMF, 50° C., read-out: Solubility",304000 to 608000 µg/mL
same,solubility,"[1]; organic solvent or mixture, DMSO, 25° C., read-out: Solubility",158000 to 210000 µg/mL
same,solubility,"[1]; organic solvent or mixture, DMSO, 50° C., read-out: Solubility",301000 to 602000 µg/mL
same,solubility,"[1]; organic solvent or mixture, EtOAc, 25° C., read-out: Solubility",< 2000 µg/mL
same,solubility,"[1]; organic solvent or mixture, EtOAc, 50° C., read-out: Solubility",< 2000 µg/mL
same,solubility,"[1]; organic solvent or mixture, EtOH, 25° C., read-out: Solubility",< 2000 µg/mL
same,solubility,"[1]; organic solvent or mixture, EtOH, 50° C., read-out: Solubility",< 2000 µg/mL
same,solubility,"[1]; organic solvent or mixture, Heptane, 25° C., read-out: Solubility",< 2000 µg/mL
same,solubility,"[1]; organic solvent or mixture, Heptane, 50° C., read-out: Solubility",< 2000 µg/mL
same,solubility,"[1]; organic solvent or mixture, IPA, 25° C., read-out: Solubility",< 2000 µg/mL
same,solubility,"[1]; organic solvent or mixture, IPA, 50° C., read-out: Solubility",< 2000 µg/mL
same,solubility,"[1]; organic solvent or mixture, MEK, 25° C., read-out: Solubility",< 2000 µg/mL
same,solubility,"[1]; organic solvent or mixture, MEK, 50° C., read-out: Solubility",< 2000 µg/mL
same,solubility,"[1]; organic solvent or mixture, MIBK, 25° C., read-out: Solubility",< 2000 µg/mL
same,solubility,"[1]; organic solvent or mixture, MIBK, 50° C., read-out: Solubility",< 2000 µg/mL
same,solubility,"[1]; organic solvent or mixture, MTBE, 25° C., read-out: Solubility",< 2000 µg/mL
same,solubility,"[1]; organic solvent or mixture, MTBE, 50° C., read-out: Solubility",< 2000 µg/mL
same,solubility,"[1]; organic solvent or mixture, MeOH, 25° C., read-out: Solubility",< 2000 µg/mL
same,solubility,"[1]; organic solvent or mixture, MeOH, 50° C., read-out: Solubility",2000 to 3000 µg/mL
same,solubility,"[1]; organic solvent or mixture, NMP, 25° C., read-out: Solubility",156000 to 208000 µg/mL
same,solubility,"[1]; organic solvent or mixture, NMP, 50° C., read-out: Solubility",202000 to 304000 µg/mL
same,solubility,"[1]; organic solvent or mixture, THF, 25° C., read-out: Solubility",< 2000 µg/mL
same,solubility,"[1]; organic solvent or mixture, THF, 50° C., read-out: Solubility",< 2000 µg/mL
same,solubility,"[1]; organic solvent or mixture, Toluene, 25° C., read-out: Solubility",< 2000 µg/mL
same,solubility,"[1]; organic solvent or mixture, Toluene, 50° C., read-out: Solubility",< 2000 µg/mL
same,solubility,"[1]; organic solvent or mixture, iPrOAc, 25° C., read-out: Solubility",< 2000 µg/mL
same,solubility,"[1]; organic solvent or mixture, iPrOAc, 50° C., read-out: Solubility",< 2000 µg/mL
same,solubility,"[1]; organic solvent or mixture, in DMF, NMP, DMSO and acetic acid/water (1:1 (v:v)), read-out: Solubility (excellent)",≥ 150000 µg/mL
same,solubility,"[1]; organic solvent or mixture, in methanol, ethanol, isopropanol, 1-butanol, acetonitrile, acetone, MEK, MIBK, ethyl acetate, isopropyl acetate, MTBE, tetrahydrofuran, chloroform, toluene, heptane and water, read-out: Solubility (low)",≤ 5000 µg/mL
same,solubility,"[1]; Water, 25° C., read-out: Solubility",< 2000 µg/mL
same,solubility,"[1]; Water, 50° C., read-out: Solubility",< 2000 µg/mL
same,Assay,[2]; 1.2 million lux-hr,104.98%
same,Purity change,[2]; 1.2 million lux-hr,+0.14%
same,XRPD patterns,[2]; 1.2 million lux-hr,Pattern 2-I
same,Final purity,[2]; 1.2 million lux-hr,99.87%
same,Appearance,"[2]; 40° C./75% RH, 1 w",White powder
same,Assay,"[2]; 40° C./75% RH, 1 w",109.86%
same,Purity change,"[2]; 40° C./75% RH, 1 w",−0.43%
same,XRPD patterns,"[2]; 40° C./75% RH, 1 w",Pattern 2-I
same,Final purity,"[2]; 40° C./75% RH, 1 w",99.30%
same,"Chemical stability (purity change %/1 w), 40° C./75% RH","[2]; 40° C./75% RH, 1 w, summary Table 9",−0.43%
same,Appearance,"[2]; 60° C., 1 w",White powder
same,Assay,"[2]; 60° C., 1 w",110.59%
same,Purity change,"[2]; 60° C., 1 w",+0.1%
same,XRPD patterns,"[2]; 60° C., 1 w",Pattern 2-I
same,Final purity,"[2]; 60° C., 1 w",99.83%
same,"Chemical stability (purity change %/1 w), 60° C.","[2]; 60° C., 1 w, summary Table 9",0.1%
same,"Sensitivity to heat, humidity and light conditions (in words)","[2]; 60° C., 40° C./75% humidity, 1.2 million lux-hr, listed as sulfate of the compound of Chemical Formula 1","sensitive under a humidity condition; also recorded: comparable results to the free form of the compound of Chemical Formula 1 under high-temperature and light stability conditions, except for a humidity condition"
same,Assay,[2]; Dark control,105.93%
same,Purity change,[2]; Dark control,+0.02%
same,XRPD patterns,[2]; Dark control,Pattern 2-I
same,Final purity,[2]; Dark control,99.75%
same,"Chemical stability (purity change %/1 w), Light stability","[2]; light stability, summary Table 9",0.14%
same,Cmax,[3]; 10 mg/kg,3154.8 ng/mL
same,t½,[3]; 10 mg/kg,4.0 h
same,AUClast,"[3]; 10 mg/kg, listed as sulfate of the compound of Chemical Formula 1, 10 mg/kg",11499.35 ng·h/mL
same,"Pharmacokinetic test, t½",[3]; summary Table 9,4 h
same,solubility at 24 h,"[4]; FeSSIF (pH = 4.98), 37° C., after 24 hours, read-out: Solubility",130 µg/mL
same,solubility at 24 h,"[4]; summary Table 9, read-out: Stimulated gastrointestinal fluid solubility, FeSSIF",130 µg/mL
